Data taken from patent publication US20020136789A1, “Use of tagetes minuta oil and its components as antiviral agents” (COUNCIL OF SCIENTIFIC & INDUSTRIAL RESEARCH, priority 2001, published 2002).
Several values for one entry are separate records, joined by “and”; a condition that tells them apart may be missing. Equal entries are not always repeated.

Tests used:
8 bacterial strains = settings: cited from earlier work
mosquito = settings: in vivo; cited from earlier work
HIV replication = settings: cited from earlier work
[1] = system: Carnation vein mottle virus (CaVMV); assay: Local lesion assay of CaVMV on Chenopodium amaranticolor leaves (test half leaf vs virus+buffer control); assay type: in vivo; settings: for Percentage Inhibition of CaVMV, IInd Treatment: compounds after extraction, summary of three experiments; for Percentage Inhibition of CaVMV, IIIrd Treatment: compounds after storing at 0° C.; for No. of Lesions on Test / % inhibition / Average No. of lesions Test / Test (number of lesions): CaVMV; for No. of Lesions on Test: 24 hrs room temperature, ten leaves; for No. of Lesions on Test / % inhibition / Average No. of lesions Test: Chenopodium amaranticolor; for Test (number of lesions): compound stored at 0° C. for two months; for antiviral activity against CaVMV (in words): components tested individually in pure form
Protocol: (§1) Each concentration of whole Tagetes minuta oil and its pure isolated components were applied on 10 leaves so that the average could be taken.
(§2) The whole oil of Tagetes minuta and its pure components i.e. ocimene and dihydrotagetone were tested individually with virus cultures of CaVMV and CaRSV and applied on the leaves of Chenopodium amaranticolor. In all the experiments each concentration of three testing mixtures were applied on ten leaves of Chenopodium amaranticolor palnt. The isolated compounds were stored at 0° C. for two months and the experiments were repeated.
(§3) The Cultures of Carnation ring spot and Carnation vein motto viruses were maintained both in natural host and on Phaseolus vulgaris and Chenopodium quinoa which are maintenance and propagation host of these viruses respectively. For virus culture, leaves of fifteen days old individual virus inoculated host plants with CaVMV and CaRSV were ground in phosphate buffer pH 7.5 and the viruses were extracted separately in crude sap.
(§4) Activity of the above volatile oils were tested against Carnation ring spot and Carnation vein mottle virus in different dilutions. Most of the tests were performed by using 0.5% and 2.5% concentration of essential oils as the phytotoxic effect appeared on Chenopodium amaranticolor leaves, at higher concentrations. The 0.5% and 2.5% concentration of essential oils were mixed with crude sap containing each virus and incubated at room temperature for 24 hrs. After incubation, sap containing virus were inoculated individually on bioassay host Chenopodium amaranticolor after adding Cellite (as abrasive) to monitor the inhibitory effect. Following results were obtained in different concentrations.

[2] = system: Carnation ring spot virus (CaRSV); assay: Local lesion assay of CaRSV on Chenopodium amaranticolor leaves (test half leaf vs virus+buffer control); assay type: in vivo; settings: for Percentage Inhibition of CaRSV, IInd Treatment: compounds after extraction, summary of three experiments; for Percentage Inhibition of CaRSV, IIIrd Treatment: compounds after storing at 0° C.; for No. of Lesions on Test / % inhibition / Average No. of lesions Test / Test (number of lesions): CaRSV; for No. of Lesions on Test: 24 hrs room temperature, ten leaves; for No. of Lesions on Test / % inhibition / Average No. of lesions Test: Chenopodium amaranticolor; for Test (number of lesions): compound stored at 0° C. for two months; for antiviral activity against CaRSV (in words): components tested individually in pure form
Protocol: as §1, §2, §3, §4

Cox B1 = settings: concentrations 12-47 μg/ml; cited from earlier work
HSV-1 = settings: concentrations 12-47 μg/ml; cited from earlier work
BGMV = settings: in vivo; cited from earlier work
TMV = settings: except during very early replicative steps following inoculation; cited from earlier work
PVX [3] = settings: cited from earlier work
SSV = settings: in vivo; cited from earlier work
PNRSV = settings: in vivo; cited from earlier work
PVX [4] = settings: susceptible viruses such as PVX; cited from earlier work
CaMV = settings: in vivo; cited from earlier work
[5] = 0.5% concentration mixed with crude sap
[6] = 2.5% concentration mixed with crude sap

## CC12CCC(CC1)C(C)(C)O2 [1,8 cineole]
8 bacterial strains
  activity against 8 bacterial strains: exhibited activity

## C=C/C(C)=C/C(=O)C=C(C)C [5-E Ocimenone]
mosquito
  mosquito larvaecideal activity: mosquito larvaecideal activity

## CC12CCC(CC1=O)C2(C)C (stereo not shown) [Camphor, camphor]
8 bacterial strains
  activity against 8 bacterial strains: almost inactive

## CC1=CC[C@@H]([C@@H](C)[C@H]2CC[C@@]3(C)C4=C(C=C(CCC(=O)O)C(=C(C)C)C=C4)CC[C@]23C)OC1=O [Compound 3]
HIV replication; HIV replication
  therapeutic index: greater than 71.4
HIV replication
  EC50, inhibition of HIV replication: 1400 µg/mL

## C=CC(C)CC(=O)CC(C)C (stereo not shown) [Dihydrotagetone, dihydrotagetone]
[1]; 0.5%
  Percentage Inhibition of CaVMV, IInd Treatment: 72.2%
  Percentage Inhibition of CaVMV, IIIrd Treatment: 100%
[1]; 2.5%
  Percentage Inhibition of CaVMV, IInd Treatment: 83.6%
  Percentage Inhibition of CaVMV, IIIrd Treatment: 100%
[1]; [5]
  No. of Lesions on Test: 38 and 40 and 45
[1]; 0.5% concentration
  % inhibition: 73.04% and 73.3% and 70.3%
  Average No. of lesions Test: 4.22 and 4.44 and 5.00
  Test (number of lesions): 0
[1]; [6]
  No. of Lesions on Test: 31 and 25 and 38
[1]; 2.5% concentration
  % inhibition: 83.0% and 87.0% and 81.0%
  Average No. of lesions Test: 3.44 and 2.77 and 4.20
  Test (number of lesions): 0
[1]
  antiviral activity against CaVMV (in words): enhanced antiviral activity
[2]; 0.5%
  Percentage Inhibition of CaRSV, IInd Treatment: 71.6%
  Percentage Inhibition of CaRSV, IIIrd Treatment: 100%
[2]; 2.5%
  Percentage Inhibition of CaRSV, IInd Treatment: 81.06%
  Percentage Inhibition of CaRSV, IIIrd Treatment: 100%
[2]; [5]
  No. of Lesions on Test: 32 and 41 and 42
[2]; 0.5% concentration
  % inhibition: 72.1% and 70.9% and 72.0%
  Average No. of lesions Test: 4.22 and 4.44 and 5.00
  Test (number of lesions): 0
[2]; 2.5% concentration
  % inhibition: 81.8% and 82.0% and 79.4%
  Average No. of lesions Test: 2.8 and 2.5 and 4.0
  Test (number of lesions): 0
[2]
  antiviral activity against CaRSV (in words): enhanced antiviral activity

## C=C/C(C)=C\CC=C(C)C [Ocimene, Z-β-ocimene]
[1]; 0.5%
  Percentage Inhibition of CaVMV, IInd Treatment: 70.2%
  Percentage Inhibition of CaVMV, IIIrd Treatment: 100%
[1]; 2.5%
  Percentage Inhibition of CaVMV, IInd Treatment: 84.3%
  Percentage Inhibition of CaVMV, IIIrd Treatment: 100%
[1]; [5]
  No. of Lesions on Test: 66 and 70 and 65
[1]; 0.5% concentration
  % inhibition: 71.05% and 63.50% and 72.1%
  Average No. of lesions Test: 6.6 and 7.0 and 6.5
  Test (number of lesions): 0
[1]; [6]
  No. of Lesions on Test: 43 and 40 and 38
[1]; 2.5% concentration
  % inhibition: 83.58% and 84.00% and 85.66%
  Average No. of lesions Test: 4.3 and 4.0 and 3.8
  Test (number of lesions): 0
[1]
  antiviral activity against CaVMV (in words): enhanced antiviral activity
[2]; 0.5%
  Percentage Inhibition of CaRSV, IInd Treatment: 67.9%
  Percentage Inhibition of CaRSV, IIIrd Treatment: 100%
[2]; 2.5%
  Percentage Inhibition of CaRSV, IInd Treatment: 80.9%
  Percentage Inhibition of CaRSV, IIIrd Treatment: 100%
[2]; [5]
  No. of Lesions on Test: 60 and 65 and 58
[2]; 0.5% concentration
  % inhibition: 69.6% and 66.6% and 67.7%
  Average No. of lesions Test: 6.0 and 6.5 and 5.8
  Test (number of lesions): 0
[2]; [6]
  No. of Lesions on Test: 40 and 25 and 35
[2]; 2.5% concentration
  % inhibition: 80.4% and 81.4% and 81.0%
  Average No. of lesions Test: 4.0 and 2.5 and 3.5
  Test (number of lesions): 0
[2]
  antiviral activity against CaRSV (in words): enhanced antiviral activity

## O=c1c(O)c(-c2ccccc2)oc2cc(O)cc(O)c12 [galangin]
Cox B1
  antiviral activity against Cox B1: significant antiviral activity
HSV-1
  antiviral activity against HSV-1: significant antiviral activity

## NC(=O)c1ncn([C@@H]2O[C@H](CO)[C@@H](O)[C@H]2O)n1 [ribavirin, Ribavirin]
BGMV
  effectiveness against BGMV: relatively or completely ineffective
TMV
  susceptibility of TMV: much less susceptible than other viruses
PVX [3]; 10 ppm, differentiating calli
  developing shoots into which virus spread was prevented: 90%
PVX [3]; 100 ppm in the medium
  inhibition of PVX in callus culture: not inhibited
SSV
  effectiveness against SSV: relatively or completely ineffective
PNRSV
  susceptibility of PNRSV: resistant
PVX [4]
  concentration needed to inhibit local lesion development and to prevent infection: Approximately 1000 ppm
CaMV
  effectiveness against CaMV: relatively or completely ineffective

## CC(C)[C@]12CC(=O)[C@H](C)[C@H]1C2 [thujone]
8 bacterial strains
  activity against 8 bacterial strains: exhibited activity
